Test results published in publication PMC3059997, “Exploring Indirect Sources of Human Exposure to Perfluoroalkyl Carboxylates (PFCAs): Evaluating Uptake, Elimination, and Biotransformation of Polyfluoroalkyl Phosphate Esters (PAPs) in the Rat” (Environmental Health Perspectives, 2010).

Key:
[1] = Uptake experiment: monoPAP mixture by oral gavage, analytes in whole blood; format: in vivo, Sprague-Dawley rats; conditions: for Tmax / Cmax (ng/g) / Cmax: whole blood; for Cmax (ng/g) / Cmax: values in parentheses < LOQ but > LOD
Procedure: (§1) This research was conducted under an animal use protocol approved by the University of Toronto Animal Care Committee. All animals were treated humanely and with regard for alleviation of suffering. Sprague-Dawley rats were obtained from Charles River Laboratories Inc. (Sherbrooke, QC, Canada) The animals were singly housed and exposed to a 12/12 hr light/dark cycle with food and water available ad libitum. Blood samples were collected from the saphenous vein using Microvette CB 300 vials (Sarstedt AG & Co., Montreal, QC, Canada) embedded with lithium-heparin as an anticoagulant. Whole-blood samples were stored at −20°C, and urine and feces samples were stored at 4°C.
(§2) Two groups of four 8-week-old male rats were administered a mixture of 4:2, 6:2, 8:2, and 10:2 diPAP or monoPAP, respectively, each at about 50 mg/kg, at 4 mL/kg by oral gavage without prior fasting. […] Two control male rats were administered clean vehicle at 4 mL/kg [for details, see Supplemental Material, Table 3 (doi:10.1289/ehp.1002409)].
(§3) Blood was collected from all animals 3 days before dosing to establish background contamination. For the uptake experiment, blood samples were collected at 1, 3, and 6 hr and 1, 2, 4, 7, 10, 14, 18, and 22 days after dosing. For the elimination experiment, blood samples were collected at 2, 4, and 6 hr and 1, 2, 4, 8, 11, 15, and 18 days after dosing. On the final sampling day, the animals were sacrificed by carbon dioxide asphyxiation, and about 10 mL of blood was collected by cardiac puncture into a BD Vacutainer embedded with lithium-heparin.
(§4) The compounds of interest fall into four categories: a) the diPAP and monoPAP parent compounds, b) the saturated and unsaturated fluorotelomer carboxylic acid (FTCA and FTUCA) metabolic intermediates, c) the FTOH-sulfate and FTOH-glucuronide phase II metabolites, and d) the final PFCA biotransformation products [see Supplemental Material, Table 1 (doi:10.1289/ehp.1002409)]. We analyzed these compounds in whole blood, urine, and feces samples. For full analytical details, see Supplemental Material. All PFCAs, FTCAs, FTUCAs, and phase II metabolites were quantified by internal calibration. Because internal standards were not available, monoPAPs and diPAPs were quantified by standard addition. We performed spike and recovery experments to validate the extraction and quantification techniques used (for details, see Supplemental Material).
(§5) Analyte and matrix specific limits of detection (LODs) and limits of quantification (LOQs) are provided in Supplemental Material (doi:10.1289/ehp.1002409). For the purpose of calculating means, values < LOD were assigned a value of zero, and values < LOQ but > LOD were used unaltered but are indicated by asterisks in figures and parentheses in tables. Values are presented using the arithmetic mean ± SE. Full data sets are available in Supplemental Material.

[2] = Elimination experiment: diPAP mixture by IV injection, analytes in whole blood; format: in vivo, Sprague-Dawley rats; conditions: for Half-life / Tmax / Cmax / Cmax (ng/g): diPAP IV dose, whole blood; for Half-life: about 15 mg/kg each; for Half-life / Cmax / Cmax (ng/g): mean ± SE; for Cmax / Cmax (ng/g): values in parentheses < LOQ but > LOD
Procedure: as §1
(§6) Two groups of four 8-week-old male rats were administered a mixture of 4:2, 6:2, 8:2, and 10:2 diPAP or monoPAP, respectively, each at about 15 mg/kg, at 2 mL/kg by intravenous (IV) injection into the lateral tail vein. The dosing vehicle was 50:50 propylene glycol:water. Two control male rats were administered clean vehicle at 2 mL/kg [for details see Supplemental Material, Table 3 (doi:10.1289/ehp.1002409)].
as §3, §4
as §5, with “Material. […]” for “Material.”

[3] = Elimination experiment: monoPAP mixture by IV injection, analytes in whole blood; format: in vivo, Sprague-Dawley rats; conditions: for Half-life / Cmax / Tmax: monoPAP IV dose; for Half-life: about 15 mg/kg each, PFCA product in whole blood; for Cmax / Tmax: whole blood
Procedure: as §1, §6, §3, §4, §5

[4] = Uptake experiment: diPAP mixture by oral gavage, analytes in whole blood; format: in vivo, Sprague-Dawley rats; conditions: for Half-life / Tmax / Cmax: diPAP gavage dose, whole blood; for Half-life: about 50 mg/kg each; for Half-life / Cmax: mean ± SE; for Cmax: values in parentheses < LOQ but > LOD
Procedure: as §1, §2, §3, §4
as §5, with “Material. […]” for “Material.”

[5] = set-up: method as in Chang et al. 2008; Ohmori et al. 2003; conditions: male rats; ref Chang et al. 2008; Ohmori et al. 2003; cited from earlier work
[6] = Renal elimination: analytes in urine collected in metabolic cages; format: in vivo, Sprague-Dawley rats
Procedure: as §1, with “4°C. […]” for “4°C.”
as §4, with “For full analytical details, see Supplemental Material.” left out, “We performed spike and recovery experments to validate the extraction and quantification techniques used (for details, see Supplemental Material).” left out

[7] = male, Sprague-Dawley, rat, in vivo, 15 mg/kg, read-out: Cmax
[8] = male, Sprague-Dawley, rat, in vivo, 15 mg/kg, read-out: Tmax (converted)

## O=C(O)[C@H]1O[C@@H](OCCC(F)(F)C(F)(F)C(F)(F)C(F)(F)C(F)(F)C(F)(F)F)[C@H](O)[C@@H](O)[C@@H]1O [6:2 FTOH-glucuronide]
[1]; rat, in vivo, po
  Detection in blood (time points): observed at 2 hr and 6 hr postdosing

## O=C(O)C(F)(F)C(F)(F)C(F)(F)C(F)(F)C(F)(F)C(F)(F)C(F)(F)C(F)(F)C(F)(F)F [PFDA, perfluorodecanoate]
[2]
  Half-life: 240 ± 48 h
  Tmax: 2 days
  Cmax: 6.2 ± 1.2 ng/g
[3]
  Half-life: 312 ± 220 h
  Cmax: 0.93 ± 0.20 ng/g
  Tmax: 360 h
[4]
  Half-life: 264 ± 48 h
  Tmax: 1 day days
  Cmax: 3.6 ± 0.6 ng/g
[1]; monoPAP gavage dose, about 50 mg/kg each, PFCA product in whole blood
  Half-life: 288 ± 190 h
[1]; monoPAP gavage dose
  Tmax: 48 h
  Cmax (ng/g): (1.1 ± 0.27) ng/g

## O=C(O)CC(F)(F)C(F)(F)C(F)(F)C(F)(F)C(F)(F)C(F)(F)C(F)(F)C(F)(F)C(F)(F)C(F)(F)F [10:2 FTCA]
[2]; after IV diPAP dosing
  Detection in blood (time points): only in the sample collected 2 days after dosing
[4]; after diPAP oral gavage
  Detection in blood (time points): present in the blood at the 6-hr time point

## O=C(O)C(F)(F)C(F)(F)C(F)(F)F [PFBA, perfluorobutanoic acid]
[2]
  Half-life: 79.2 ± 28.8 h
  Tmax: 1 day days
  Cmax: 20 ± 5 ng/g
[3]
  Half-life: 12.7 ± 3.6 h
  Cmax: 7.3 ± 1.3 ng/g
  Tmax: 6 h
[4]
  Tmax: 1 day days
  Cmax: 3.8 ± 1.0 ng/g
[5]
  Serum half-lives: on the order of hours
[1]; monoPAP gavage dose
  Tmax: 1 day days
  Cmax: 9.7 ± 1.9 ng/g

## O=S(=O)(O)OCCC(F)(F)C(F)(F)C(F)(F)C(F)(F)F [4:2 FTOH-sulfate]
[2]; after IV diPAP dosing
  Detection in blood (time points): in the blood 2 hr postdosing
[6]; urine samples from all dosing regimes
  Observation in urine: consistently observed
[3]; after monoPAP IV dosing
  Detection in blood (time points): in the blood 2 hr after dosing

## O=C(O)C(F)(F)C(F)(F)C(F)(F)C(F)(F)C(F)(F)F [PFHxA, perfluorohexanoic acid]
[2]
  Half-life: 43.2 ± 12.2 h
  Tmax: 1 day days
  Cmax (ng/g): (3.0 ± 1.0) ^d ng/g
[3]
  Half-life: 5.52 ± 5.52 h
  Cmax: 5.6 ± 1.3 ng/g
  Tmax: 4 h
[4]
  Half-life: 101 ± 31.2 h
  Tmax: 4 h
  Cmax: 10 ± 1.2 ng/g
[5]
  Serum half-lives: on the order of hours
[1]; monoPAP gavage dose
  Tmax: 4 h
  Cmax: 7.4 ± 1.5 ng/g

## O=S(=O)(O)OCCC(F)(F)C(F)(F)C(F)(F)C(F)(F)C(F)(F)C(F)(F)C(F)(F)C(F)(F)C(F)(F)C(F)(F)F [10:2 FTOH-sulfate]
[4]; after diPAP oral gavage
  Detection in blood (time points): at 1 and 2 days after dosing
[1]; after monoPAP oral gavage
  Detection in blood (time points): frequently detected between 6 hr and 2 days postdosing

## O=C(O)CCC(F)(F)C(F)(F)C(F)(F)C(F)(F)C(F)(F)C(F)(F)C(F)(F)F [7:3 FTCA]
[1]; after monoPAP oral gavage
  Detection in blood (time points): present in all of the samples from 2 hr to 2 days postdosing

## O=C(O)[C@H]1O[C@@H](OCCC(F)(F)C(F)(F)C(F)(F)C(F)(F)F)[C@H](O)[C@@H](O)[C@@H]1O [4:2 FTOH-glucuronide]
[2]; rat, in vivo, iv
  Detection in blood (time points): in the blood 2 hr postdosing
[6]; rat, in vivo
  Observation in urine: consistently observed
[3]; rat, in vivo, iv
  Detection in blood (time points): in the blood 2 hr after dosing
[1]; rat, in vivo, po
  Detection in blood (time points): observed at 2 hr and 6 hr postdosing

## O=C(O)C(F)(F)C(F)(F)C(F)(F)C(F)(F)C(F)(F)C(F)(F)F [PFHpA, perfluoroheptanoic acid]
[2]; [7]
  Cmax: 7.3 ± 0.6 ng/g
[2]; [8]
  Tmax: 0.167 days
[3]; [7]
  Cmax: 2.3 ± 0.7 ng/g
[3]; [8]
  Tmax: 24 h
[4]; male, Sprague-Dawley, rat, in vivo, po, 50 mg/kg, read-out: Cmax
  Cmax: 2.6 ± 0.5 ng/g
[4]; male, Sprague-Dawley, rat, in vivo, po, 50 mg/kg, read-out: Tmax (converted)
  Tmax: 24 h
[1]; male, Sprague-Dawley, rat, in vivo, po, 50 mg/kg, monoPAP gavage dose, read-out: Tmax (converted)
  Tmax: 24 h
[1]; male, Sprague-Dawley, rat, in vivo, po, 50 mg/kg, monoPAP gavage dose, read-out: Cmax
  Cmax: 9 ± 2.2 ng/g

## O=C(O)CC(F)(F)C(F)(F)C(F)(F)C(F)(F)C(F)(F)C(F)(F)C(F)(F)C(F)(F)F [8:2 FTCA]
[4]; after diPAP oral gavage
  Detection in blood (time points): 6 hr postdosing, but in only one animal
[1]; after monoPAP oral gavage
  Detection in blood (time points): blood samples taken 2, 4, and 6 hr postdosing

## O=C(O)CC(F)(F)C(F)(F)C(F)(F)C(F)(F)C(F)(F)C(F)(F)F [6:2 FTCA]
[3]; after monoPAP IV dosing
  Detection in blood (time points): 2 hr postdosing
[4]; after diPAP oral gavage
  Detection in blood (time points): 6 hr postdosing, but in only one animal
[1]; after monoPAP oral gavage
  Detection in blood (time points): blood samples taken 2, 4, and 6 hr postdosing

## O=C(O)CC(F)(F)C(F)(F)C(F)(F)C(F)(F)F [4:2 FTCA]
[3]; after monoPAP IV dosing
  Detection in blood (time points): 2 hr postdosing
[4]; after diPAP oral gavage
  Detection in blood (time points): 6 hr postdosing, but in only one animal

## O=C(O)C(F)(F)C(F)(F)C(F)(F)C(F)(F)F [PFPeA, perfluoropentanoic acid]
[2]
  Tmax: 0.083 days
  Cmax: 7.1 ± 0.6 ng/g
[3]
  Cmax: 2.1 ± 0.8 ng/g
  Tmax: 6 h

## O=C(O)C(F)(F)C(F)(F)C(F)(F)C(F)(F)C(F)(F)C(F)(F)C(F)(F)C(F)(F)F [PFNA, perfluorononanoate]
[2]
  Tmax: 15 days
  Cmax (ng/g): (4.1 ± 3.3) ng/g
[3]
  Cmax: 2.3 ± 0.4 ng/g
  Tmax: 360 h
[4]
  Tmax: 190 h
  Cmax: 6.4 ± 5.2 ng/g
[1]; monoPAP gavage dose
  Tmax: 1 day days
  Cmax (ng/g): (1.5 ± 0.09) ng/g

## O=S(=O)(O)OCCC(F)(F)C(F)(F)C(F)(F)C(F)(F)C(F)(F)C(F)(F)C(F)(F)C(F)(F)F [8:2 FTOH-sulfate]
[1]; after monoPAP oral gavage
  Detection in blood (time points): frequently detected between 6 hr and 2 days postdosing

## O=C(O)C=C(F)C(F)(F)C(F)(F)C(F)(F)F [4:2 FTUCA]
[3]; rat, in vivo, iv
  Detection in blood (time points): 2 hr postdosing
[4]; rat, in vivo, po
  Detection in blood (time points): 6 hr postdosing, but in only one animal

## O=C(O)CCC(F)(F)C(F)(F)C(F)(F)C(F)(F)C(F)(F)F [5:3 FTCA]
[2]; after IV diPAP dosing
  Detection in blood (time points): in the samples from 2 hr to 2 days postdosing
[3]; after monoPAP IV dosing
  Detection in blood (time points): observed in the 2, 4, and 6-hr time points
[1]; after monoPAP oral gavage
  Detection in blood (time points): present in all of the samples from 2 hr to 2 days postdosing

## O=C(O)C=C(F)C(F)(F)C(F)(F)C(F)(F)C(F)(F)C(F)(F)F [6:2 FTUCA]
[3]; rat, in vivo, iv
  Detection in blood (time points): observed in the 2, 4, and 6-hr time points
[4]; rat, in vivo, po
  Detection in blood (time points): 6 hr postdosing, but in only one animal
